Data taken from BigSolDB 2.1.

CN1C(C(=O)Nc2ccccn2)=C(O)c2sc(Cl)cc2S1(=O)=O
Conditions	solubility (mole fraction)
in PEG-400, 298.15 K	0.00855
in PEG-400, 303.15 K	0.0101
in PEG-400, 308.15 K	0.0114
in PEG-400, 313.15 K	0.0129
in PEG-400, 323.15 K	0.0169

solubility (mole fraction)
Conditions	in ethanol	in ethyl acetate	in ethylene glycol	in isopropanol	in n-butanol	in propylene glycol	in sec-butanol	in transcutol	in water
298.15 K	8.43e-06	8.39e-05	0.000224	9.05e-06	1.36e-05	3.17e-05	2.99e-05	0.000317	2.91e-06
303.15 K	1.16e-05	9.08e-05	0.000334	1.16e-05	1.55e-05	3.6e-05	3.59e-05	0.000382	4.12e-06
308.15 K	1.45e-05	9.86e-05	0.000474	1.45e-05	1.75e-05	4.05e-05	4.19e-05	0.000462	5.52e-06
313.15 K	1.98e-05	0.000107	0.000634	1.81e-05	1.99e-05	4.5e-05	4.78e-05	0.000552	7.27e-06
323.15 K	3.22e-05	0.000121	0.00108	2.67e-05	2.39e-05	5.4e-05	6.58e-05	0.000743	1.19e-05
